Where a name gives a salt, the structure may show the parent alone.

In test [1] the target is T1, mGlu7 receptor (Homo sapiens, UniProt Q14831).
T1 construct: expressed in transfected cells
The test is described as follows: HTRF cAMP assay: potentiation of forskolin action without agonist (inverse agonist properties). The class given is cell-based. The conditions noted are these: T-REx 293 cells, 5 μM forskolin. The method, then:
(§1) A homogeneous time-resolved fluorescence (HTRF) cAMP dynamic 2 (Cisbio, Codolet, France) assay was performed as previously described ([Chruścicka et al., 2015]) with recombinant cell lines. Briefly, HEK 293 T-REx cells stably expressing mGlu7 receptor, were collected and suspended in Hanks-HEPES buffer. The cell suspension was added to compounds solution with 5 μM of forskolin (final concentration). After 5 min incubation in 37°C, 5 μl of cAMP-d2 conjugate in lysis buffer was added and mixed with the 10 μl cell suspension by means of an automated pipetting system (Tecan Evo 200, Tecan, Mannedorf, Switzerland). Next, 5 μl anti-cAMP cryptate conjugate was added and the fluorescence at 620 and 665 nm was read after 1 h (Tecan Infinite M1000). The results are shown as the 665 nm/620 nm ratio multiplied by 10^4. The detected signal was inversely proportional to the concentration of cAMP in the sample. […] Each experiment was performed three times (n = 3), and each data point was in triplicate.
Both compounds dose-dependently potentiated forskolin action, elevating cAMP concentration in the T-REx 293 cells (Figure 2B). […] This effect was not observed for an antagonist of mGluR7 – XAP044.

Another test deals with mGlu7. Details: method as in Wright et al., 2000. Conditions: ref Wright et al., 2000; read-out: Ki (affinity of mGlu7 for glutamate); cited from earlier work.
In test [2] the target is T1, mGlu7 receptor. Description: HTRF cAMP assay: antagonism of L-Glu (EC80) inhibition of forskolin-stimulated cAMP accumulation (NAM profile). The class given is cell-based. Conditions: inhibition of forskolin-stimulated cAMP accumulation. The method, then:
as §1

The subject of test [3] is prepulse-induced inhibition of the acoustic startle response. The test is described as follows: Prepulse inhibition of the acoustic startle response. The test is classed as in vivo, Wistar rats. The conditions noted are these: MK-801 0.3 mg/kg, rats. The method, then: The procedure was performed according to [Czyrak et al., 2003]. On the day before the experiment, the animals were subjected to a single startle session consisting of two trials, each presented 20 times during the session. During the first trial, a 120 dB, 40 ms pulse was presented, and on the second trial this pulse was preceded by a 75 dB, 20 ms prepulse. On the day of the experiment, the animals were habituated to the background white noise (65 dB) for 5 min (which continued throughout the test), after that the startle session was carried out as described above. Startle response amplitude was defined as the difference between the maximum force detected during a recording window and the force measured immediately before the stimulus onset (the threshold was set at 10 g). For each animal, the amplitudes were averaged separately for each type of trial. The PPI was calculated as the difference between the amplitudes of the pulse (P) and the prepulse + pulse (PP+P), divided by the amplitude of the pulse alone [([P - (PP + P)]/P)×100].

T1 sequence (Q14831 35-915): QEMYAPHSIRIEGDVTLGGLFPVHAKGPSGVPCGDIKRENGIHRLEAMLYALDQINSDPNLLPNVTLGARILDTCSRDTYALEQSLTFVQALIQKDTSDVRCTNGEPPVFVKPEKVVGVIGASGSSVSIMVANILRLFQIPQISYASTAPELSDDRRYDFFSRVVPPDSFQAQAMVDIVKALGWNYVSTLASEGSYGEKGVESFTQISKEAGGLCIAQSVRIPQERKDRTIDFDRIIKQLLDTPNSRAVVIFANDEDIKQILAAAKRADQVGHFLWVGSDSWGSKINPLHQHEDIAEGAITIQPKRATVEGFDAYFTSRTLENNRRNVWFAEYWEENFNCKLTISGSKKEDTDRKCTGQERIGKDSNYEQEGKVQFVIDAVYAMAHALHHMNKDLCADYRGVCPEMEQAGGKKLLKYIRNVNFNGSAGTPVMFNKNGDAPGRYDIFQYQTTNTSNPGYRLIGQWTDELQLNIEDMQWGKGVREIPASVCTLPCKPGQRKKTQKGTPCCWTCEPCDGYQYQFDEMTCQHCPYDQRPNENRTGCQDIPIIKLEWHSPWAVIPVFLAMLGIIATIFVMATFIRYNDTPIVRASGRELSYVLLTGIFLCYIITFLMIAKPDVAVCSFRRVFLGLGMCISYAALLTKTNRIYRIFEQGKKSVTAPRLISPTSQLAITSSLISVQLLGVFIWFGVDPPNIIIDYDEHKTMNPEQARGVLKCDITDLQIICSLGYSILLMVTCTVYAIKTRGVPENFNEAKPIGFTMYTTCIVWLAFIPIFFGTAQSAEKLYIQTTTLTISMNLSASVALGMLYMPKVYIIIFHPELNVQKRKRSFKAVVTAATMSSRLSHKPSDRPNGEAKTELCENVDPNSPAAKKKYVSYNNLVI

For `O=c1c(Oc2ccc(I)cc2)coc2cc(O)ccc12` [XAP044], the “Potentiation of forskolin action (inverse agonist effect)” value on mGlu7 receptor [1] is reported as “not observed”.

Regarding `N[C@@H](CCC(=O)O)C(=O)O` [L-Glu], the Ki on mGlu7 is 869 µM. The “L-Glu EC80 concentration” value at mGlu7 receptor [2] was found to be 6260 µM.

Regarding `C[C@]12N[C@H](Cc3ccccc31)c1ccccc12` [MK-801, (5S,10R)-(+)-5-Methyl-10,11-dihydro-5H-dibenzo[a,d]cyclo-hepten-5,10-imine maleate], in test [3], the “Prepulse-induced inhibition of the acoustic startle response after MK-801” value was 16 % of control.

The values are drawn from paper PMC6158327, “Negative Allosteric Modulators of mGlu7 Receptor as Putative Antipsychotic Drugs” (Frontiers in Molecular Neuroscience, 2018).
